Key:
[1] = test system: serum levels of LH, FSH, T and DHT; assay: MENT Ac subcutaneous implants in healthy men for 28 days: serum hormone levels; format: in vivo, human
Protocol: (§1) Forty-five healthy, normal male subjects were selected for a study of the contraceptive effect of androgens alone. Subjects were treated over the course of four weeks, during which extensive blood work-ups were undertaken. The subjects were divided into three groups of 15 each. Group A received one subcutaneous implant, Group B received two subcutaneous implants and Group C received four subcutaneous implants. Implants remained in place for 28 consecutive days.
(§2) The total duration of the study was 42 days. Each man included in the study was assessed through a medical history and a complete general physical examination and a determination of general eligibility. Subjects were tested on a weekly basis for six consecutive weeks at approximately the same time each day. Day 1 was the date of the subdermal implant's insertion and Day 29 was removal. On the last day of the study, Day 43, subjects received a general physical examination, as well as an additional battery of blood tests. Blood samples for hormone immuno assays MENT (7 mL), FSH, LH and testosterone (5 mL for the last 3 hormones together) were obtained during pre-admission and each subsequent visit.
FIG. 2 illustrates the effect of MENT Ac implants on mean serum LH concentration. […] By suppressing LH, testosterone production is suppressed. […] A reduction in testosterone reduces or eliminates spermatogenesis. However, because androgen is being supplied, sexual function is generally maintained.
Finally, FIG. 3 illustrates the effect of MENT Ac implants on the mean serum FSH concentration. […] FSH stimulates germ cell production. If germ cells are present, but testosterone is insufficient, then spermatogenesis cannot take place and sperm cells will not be produced. Similarly, if FSH concentrations are low enough, germ cells will not be produced and spermatogenesis cannot take place irrespective of testosterone levels.

[2] = MENT Ac subcutaneous implants in healthy men: serum MENT levels and in vivo release; design: species or system human
Protocol: as §1, §2

[3] = test system: serum levels of LH, FSH and T; assay: Multiple-dose daily i.m. injection of MENT in normal men for six days: serum hormone levels; format: in vivo, human
Protocol: Two multiple injection studies were undertaken in which groups of four normal, non-sterile men each received 1, 2 or 4 mg of MENT daily by intramuscular (i.m.) injection for six consecutive days (24 men, 12 in each study). The formulation in each injection included the appropriate amount of MENT suspended in 27.6 mg/mL of polyethylene glycol, 1.8 mg/mL of Tween 80 and 8.3 mg/mL of sodium chloride. Serum FSH, LH and testosterone levels were measured daily. The results are illustrated in FIGS. 7-12.
The values returned to the normal range by day 15-30 of the study period. With reference to FIG. 8 (open boxes connected by a line=1 mg, closed boxes connected by a line=2 mg, open circles connected by a line=4 mg) a dose of at least 4 mg was required to obtain serum levels of FSH below two international units (“IU”) per liter by day 6. This must be compared with the results obtained by the use of 1000 μg (1 mg) of the same androgen delivered by a subcutaneous implant as illustrated in FIGS. 2-4 and Example 1. Therefore, considerably more of this same androgen was required to obtain certain depressed serum levels of LH, FSH and testosterone in males when the androgen was administered through a once-a-day intramuscular injection when compared to continuous release implants. […] FIG. 7 illustrates the level of serum LH achieved in the first study and FIG. 9 illustrates the level of serum testosterone achieved. FIGS. 10-12 illustrate the levels of LH, FSH and testosterone realized by the same protocol at the second testing site. Both the data and the overall trends of both studies are largely the same.

prostate = settings: in the potency ranges contemplated; cited from earlier work
[4] = single implant, about 500 micrograms MENT Ac per day, about 28 days
[5] = two implants simultaneously, about 1,000 micrograms MENT Ac per day

With `CC(=O)O[C@H]1CC[C@H]2[C@H]3[C@H](CC[C@]12C)[C@H]1CCC(=O)C=C1C[C@H]3C` [MENT Ac] the “mean serum LH concentration” value ([1]; 2 or 4 implants (500 micrograms each), day 8) was “nearly undetectable levels of LH”, the “mean serum LH concentration” value ([1]; first post implant visit on day 8, one, two or four implants) was “dropped significantly” and the “levels of LH, FSH and testosterone” value ([1]; four 500 microgram per day implants simultaneously) was “very comparable to those obtained at the 1000 microgram per day level”. The “mean serum FSH concentration” value ([1]; one, two or four implants) was “significant impact on the serum FSH concentration”, the “mean serum T concentration (testosterone)” value ([1]; single implant) was “much reduced levels of testosterone” and the “daily blood levels of FSH (average)” value [1, 4] was “above 2 IU/L”. The “daily blood levels of LH (average)” value [1, 4] was “below 2 IU/L”, the “daily blood levels of testosterone” value [1, 4] was “about 5.0 nmol/liter” and the “daily blood levels of FSH (average)” value [1, 5] was “less than 0.5 IU/L”. For the same molecule, the “daily blood levels of LH (average)” value [1, 5] was “less than 0.5 IU/L”, the “daily blood levels of testosterone” value [1, 5] was “about 1.0 nmol/liter” and the “mean serum T concentration (testosterone)” value ([1]; two or four implants) was “very low testosterone levels”. The release rate ([2]; 4.4 cm implant, drug load 112±4 mg MENT Ac, based on an in vivo study) was “approximately 500 micrograms per implant per day”, the bioavailability from implants ([2]; certain subcutaneous implants, MENT Ac compared with MENT) was “superior in terms of bioavailability” and the “hydrolysis to MENT” value ([2]; in vivo) was “readily hydrolyzed to MENT”.

With `C[C@@H]1CC2=CC(=O)CC[C@@H]2[C@H]2CC[C@]3(C)[C@@H](O)CC[C@H]3[C@@H]21` [MENT, 7α-methyl-19-nortestosterone] the “levels of the metabolite DHT” value ([1]; MENT Ac implants, FIG. 5) was “actually decreased”, the “result in terms of testosterone (contraceptive adequacy)” value ([3]; 1 mg MENT by i.m. injection once a day) was “inadequate for contraceptive purposes” and the “contraceptive adequacy from serum testosterone (FIGS. 9 and 12)” value ([3]; 4 mg MENT by once-a-day i.m. injection) was “sufficient to ensure that some level of effective contraception is obtained”. For the same molecule, the “serum gonadotropins and testosterone levels” value ([3]; 1, 2 or 4 mg MENT daily i.m. for six days, both studies) was “gradual decrease”, the “time at which serum gonadotropins and testosterone reached their lowest levels” value ([3]; 1, 2 or 4 mg MENT daily i.m., end of treatment) was “six” and the “study day by which values returned to the normal range” value ([3]; after 1, 2 or 4 mg MENT daily i.m. for six days) was 15 to 30 days. The “dose required to obtain serum levels of FSH below two IU per liter by day 6” value ([3]; daily i.m. injection, first study, FIG. 8) was “at least 4 mg” and the “stimulation of the prostate” value (prostate) was “stimulates the prostate to a much lower degree”.

In the case of `C[C@]12CC[C@H]3[C@@H](CCC4=CC(=O)CC[C@@]43C)[C@@H]1CC[C@@H]2O` [testosterone, reference compound], the “stimulation of the prostate” value (prostate) is given as “can overstimulate the prostate”.
